Source: the NIST ThermoML archive (doi:10.1021/acs.jced.8b00132)
Where “and” joins values, the source holds several entries; their conditions need not be identical. Equal entries are not always repeated.

Conditions: Gas, transient hot wire

O=C(C(F)(F)C(F)(F)F)C(F)(C(F)(F)F)C(F)(F)F [dodecafluoro-2-methylpentan-3-one]
Conditions | thermal conductivity
499.92 K, 25604 kPa | 0.05225 W/m/K
499.93 K, 870 kPa | 0.02694 W/m/K
499.93 K, 6552 kPa | 0.0387 W/m/K
499.93 K, 13400 kPa | 0.04487 W/m/K
499.93 K, 18421 kPa | 0.04818 W/m/K
499.94 K, 869 kPa | 0.0272 W/m/K
499.94 K, 18421 kPa | 0.0482 W/m/K
499.95 K, 5597 kPa | 0.03741 W/m/K
499.96 K, 2952 kPa | 0.03132 W/m/K
499.96 K, 3620 kPa | 0.0341 W/m/K
499.97 K, 25600 kPa | 0.05221 W/m/K
499.97 K, 25604 kPa | 0.05228 W/m/K
499.98 K, 645 kPa | 0.02717 W/m/K
499.99 K, 10173 kPa | 0.04254 W/m/K
499.99 K, 13400 kPa | 0.04504 W/m/K
499.99 K, 13402 kPa | 0.04506 W/m/K
499.99 K, 18421 kPa | 0.04841 W/m/K
500 K, 646 kPa | 0.02728 W/m/K
500 K, 2952 kPa | 0.03119 W/m/K
500 K, 3286 kPa | 0.03306 W/m/K and 0.03284 W/m/K
500 K, 6554 kPa | 0.03863 W/m/K
500 K, 6555 kPa | 0.03872 W/m/K
500 K, 8108 kPa | 0.04046 W/m/K
500 K, 10172 kPa | 0.04249 W/m/K
500.01 K, 1594 kPa | 0.02714 W/m/K
500.01 K, 2129 kPa | 0.02838 W/m/K
500.02 K, 1594 kPa | 0.02737 W/m/K
500.02 K, 2129 kPa | 0.0285 W/m/K
500.02 K, 2565 kPa | 0.02947 W/m/K
500.02 K, 2566 kPa | 0.0295 W/m/K
500.02 K, 8108 kPa | 0.04041 W/m/K
500.02 K, 18425 kPa | 0.0483 W/m/K
500.05 K, 419 kPa | 0.02753 W/m/K
500.06 K, 419 kPa | 0.02752 W/m/K
500.07 K, 10171 kPa | 0.04243 W/m/K
500.08 K, 870 kPa | 0.02705 W/m/K and 0.02701 W/m/K
500.08 K, 6554 kPa | 0.03889 W/m/K and 0.03865 W/m/K
500.08 K, 8107 kPa | 0.04045 W/m/K
500.08 K, 18421 kPa | 0.04829 W/m/K
500.09 K, 2952 kPa | 0.03151 W/m/K
500.1 K, 2952 kPa | 0.03143 W/m/K
500.1 K, 8107 kPa | 0.04058 W/m/K
500.1 K, 13402 kPa | 0.04498 W/m/K
500.12 K, 644 kPa | 0.02715 W/m/K
500.13 K, 645 kPa | 0.02741 W/m/K
500.13 K, 1594 kPa | 0.02735 W/m/K
500.14 K, 2565 kPa | 0.0296 W/m/K
500.15 K, 1594 kPa | 0.02739 W/m/K
500.15 K, 10171 kPa | 0.04243 W/m/K
500.16 K, 419 kPa | 0.02764 W/m/K
500.16 K, 10174 kPa | 0.04246 W/m/K
500.16 K, 13402 kPa | 0.04495 W/m/K
500.17 K, 6553 kPa | 0.03885 W/m/K
500.17 K, 8107 kPa | 0.04052 W/m/K
500.17 K, 8287 kPa | 0.04057 W/m/K
500.17 K, 13401 kPa | 0.04512 W/m/K
500.18 K, 6551 kPa | 0.03865 W/m/K
500.18 K, 8108 kPa | 0.04052 W/m/K
500.18 K, 8283 kPa | 0.0406 W/m/K
500.2 K, 419 kPa | 0.02743 W/m/K
500.23 K, 871 kPa | 0.02696 W/m/K
500.24 K, 872 kPa | 0.02702 W/m/K
500.24 K, 2563 kPa | 0.02975 W/m/K and 0.02983 W/m/K
500.25 K, 6550 kPa | 0.0387 W/m/K
500.25 K, 10172 kPa | 0.04247 W/m/K
500.26 K, 6550 kPa | 0.0388 W/m/K
500.27 K, 8107 kPa | 0.04068 W/m/K and 0.04066 W/m/K
500.27 K, 8290 kPa | 0.04063 W/m/K
500.27 K, 8294 kPa | 0.04069 W/m/K
500.28 K, 643 kPa | 0.02732 W/m/K and 0.02714 W/m/K
500.33 K, 419 kPa | 0.02775 W/m/K
500.34 K, 418 kPa | 0.02786 W/m/K
500.35 K, 8106 kPa | 0.0405 W/m/K
500.36 K, 8300 kPa | 0.04074 W/m/K
500.37 K, 8107 kPa | 0.04059 W/m/K
500.4 K, 872 kPa | 0.02701 W/m/K
500.4 K, 874 kPa | 0.02698 W/m/K
500.43 K, 643 kPa | 0.02726 W/m/K
500.45 K, 643 kPa | 0.0272 W/m/K
500.46 K, 8304 kPa | 0.04072 W/m/K
500.46 K, 8307 kPa | 0.04066 W/m/K
500.48 K, 417 kPa | 0.02764 W/m/K
500.49 K, 417 kPa | 0.02771 W/m/K
500.58 K, 8309 kPa | 0.04075 W/m/K
